Source: patent US20090197811A1, “ORALLY ADMINISTERED PEPTIDES TO IMPROVE OR PREVENT HEPATIC FIBROSIS” (University of Southern California, priority 2007, published 2009)
Values joined by “and” are separate entries in the source; they are usually repeats but may differ in a detail not shown here. Identical values can stand only once. “Also recorded” adds a separate entry of the source.

Key:
Format in all cases: in vivo, mouse
[1] = tested on: C57Bl/6J mice; assay: Western diet model: biochemical findings and liver and body weights; conditions: for GSH / TBARS: liver; for ALT / AST / Adiponectin / Cholesterol / Glucose / Insulin / Leptin / Triglycerides: serum
Protocol: SR141716 was a kind gift from Sanofi-Aventis, France. SR141716 was dissolved in water with 0.1% Tween and given daily by gavage for 10 weeks. D-4F is an 18-mer of D-amino acids (Ac-D-W-F-K-A-F-Y-D-K-V-A-E-K-F-K-E-A-F-NH2)^4 (SEQ ID NO: 1) that was commercially synthesized (A & A Laboratories, San Diego Calif.) with 80% purity. D-4F was dissolved in the drinking water at a concentration of 60 μg/ml water for a calculated dose corrected for drug purity of 125 μg D-4F/mouse/day.
The high fat diet used was the RD “Western diet” (Research Diets, D12079B), which contains 41% of calories from fat, 43% calories from carbohydrate, and 17% of calories from protein); this diet was designed to approximate the “typical” human diet of North America and Europe.
(§1) Studies were performed in male C5713L/6J mice (Jackson Laboratories, Bar Harbor Me.). Six groups were studied (n=3-5, see FIG. 1) with 4 mice per group at the outset, except for group 2, which was started with n=5; 1 mouse died in group 1. Groups 1, 2, and 3 received the Western diet for 9.5 months; during the last 2.5 months of the 9.5 months, group 2 received SR141716 10 mg/kg/day i.g., and group 3 received D-4F, 125 μg/mouse/day, in the drinking water. Groups 4, 5, and 6 received the Western diet for 7 months followed by standard chow for 2.5 months; during the 2.5 months on standard chow, group 5 received SR141716 and group 6 received D-4F as described for groups 2 and 3, respectively. Additional control groups were studied: 6-month old C57Bl/6J mice as age-matched controls (n=5) and C57Bl/6J mice that received the Western diet for 6 months (n=6).
Serum aspartate amino transferase (AST) and alanine aminotransferase (ALT) were measured with the Infinity AST and ALT liquid assay reagent (Thermo Electron Corporation, Louisville Colo., cat #TR70121 and TR71121). Serum triglycerides and cholesterol were measured with the Infinity cholesterol assay reagent (Thermo Electron Corporation, Louisville Colo., cat #TR22321 and TR13315). Serum glucose was measured with the Glucose (HK) assay kit (Sigma, St. Louis, Mo., cat #GAHK-20). Serum insulin was measured with the Mercodia Ultrasensitive mouse insulin ELISA kit (ALPCO Diagnostics, Salem N.H., cat #10 1150-01). The homeostasis model assessment insulin resistance index (HOMA-IR) was calculated as [fasting glucose (mmol/liter)*fasting insulin (microunits/ml)]/22.5^17, 18. Serum leptin was measured with the TiterZyme EIA mouse leptin kit (Assay Designs Inc, Ann Arbor Mich., cat #900-019). Serum adiponectin was measured with the mouse adiponectin kit (Biovendor LLC, Candler N.C., cat #RD 293023100). Thiobarbituric acid reactive substance (TBARS) was measured as previously described^19, 20; in brief, liver was homogenized and diluted 1:1 in 10% ice cold trichloroacetic acid. 0.5 ml supernatant or of a standard solution of 1,1,3,3-tetraethoxypropane was mixed with 0.5 ml of 0.6% (w/v) 4,6-dihydroxy-2-thiopyrimidine. The solution was boiled for 30 min, cooled and centrifuged. Absorbance was measured at 532 nm with a Shimadzu TV-2101 PC spectrophotometer. To measure hepatic glutathione (GSH), liver was homogenized and diluted 1:1 in 10% ice cold trichloroacetic acid. GSH in the supernatant was measured according to the recycling assay of Tietze^21.

[2] = tested on: C57Bl/6J mice; assay: Western diet model: fibrosis by Sirius red whole-section-scanning morphometric image analysis; conditions: summary statement
Protocol: as §1
Sirius red staining was performed by the Morphology core of the USC-UCLA Research Center for Alcoholic Liver and Pancreatic Diseases. α-Smooth muscle actin.
Tissue sections stained with Sirius red were scanned by a third-generation Automated Cellular Imaging System (ACIS III), a highly automated microscope-based digital imaging system (Carl Zeiss MicroImaging AIS Inc., Aliso Viejo Calif.). The color of the Sirius red staining in the digitized tissue sections was determined and applied to a pre-existing algorithm that provides the area of a target color in μm^2. The outline of each digitized tissue section was manually traced using the computer's mouse. Areas of large portal tracts and central veins were also outlined manually. The total area (μm^2) of each tissue section and of the total area of large portal tracts and central veins were determined by the image analysis system. The area of fibrosis was calculated as [total area stained by Sirius red minus perivascular staining] as a percentage of the size of the tissue section. This method has the advantage of scanning the entire section, rather than measuring fibrosis in randomly chosen fields.

[3] = tested on: C57Bl/6J mice; assay: Western diet model: liver histology, assessment of steatosis and inflammation; conditions: for Fatty Change Degree of fat / Fatty Change Type (predominant type) / Inflammatory Clusters: individual mice
Protocol: as §1
The slides were coded, without the pathologist knowing the specific treatment group that the slides represented. The histology was graded according to a number of histologic features. The degree of fat was graded as to the approximate percentage of hepatocytes containing fat: 0, absent; +/−, less than 5%; 1+, 5-25%; 2+. 26-50%; 3+, 51-75%; 4+, >75%. The fat was also assessed as to whether it was totally macrovesicular, predominantly macrovesicular, totally microvesicular, predominantly microvesicular, or mixed macro- and microvesicular. In addition, the zone was assessed as to whether the fat was perivenular, periportal, diffuse, or focal. Inflammation was graded as absent, scanty (1 to 3 foci/slide), present (scattered, with 4 to 10 foci/slide), present + (scattered, >10 foci/slide but not numerous), and present ++ (numerous). The type of inflammation was graded as totally mononuclear, predominantly mononuclear, totally neutrophilic, predominantly neutrophilic, and mixed mononuclear-neutrophilic. The hydropic change of hepatocytes was graded as absent, mild, and moderate/severe, with the location noted as perivenular, focal or diffuse.

[4] = 7 months Western diet followed by 2.5 months Western diet + drug
[5] = 7 months Western diet followed by 2.5 months chow + drug

## Cc1c(C(=O)NN2CCCCC2)nn(-c2ccc(Cl)cc2Cl)c1-c1ccc(Cl)cc1 [SR141716, reference compound]
[1]; [4]
  Body weight: 29.1 ± 2.0 g
  HOMA-IR: 8.8 ± 3.6
  Liver weight: 1.54 ± 0.1 g
  GSH: 68.7 ± 2.0 nmole/mg protein
  TBARS: 17.1 ± 0.7 nmol/g tissue
  ALT: 54.8 ± 12.4 U/L
  AST: 109.6 ± 10.4 U/L
  Adiponectin: 18.4 ± 1.8 µg/mL
  Cholesterol: 112.2 ± 13.7 mg/dL
  Glucose: 136.3 ± 29.2 mg/dL
  Insulin: 0.81 ± 0.15 ng/mL
  Leptin: 2.36 ± 1.05 ng/mL
  Triglycerides: 33.1 ± 2.2 mg/dL
[1]; [5]
  Body weight: 30.2 ± 1.1 g
  HOMA-IR: 6.1 ± 2.0
  Liver weight: 1.39 ± 0.1 g
  GSH: 73.8 ± 2.2 nmole/mg protein
  TBARS: 18.7 ± 1.09 nmol/g tissue
  ALT: 59.1 ± 11.4 U/L
  AST: 69.1 ± 5.5 U/L
  Adiponectin: 16.5 ± 2.0 µg/mL
  Cholesterol: 105.3 ± 4.7 mg/dL
  Glucose: 96.2 ± 3.0 mg/dL
  Insulin: 0.89 ± 0.27 ng/mL
  Leptin: 1.95 ± 0.72 ng/mL
  Triglycerides: 47.0 ± 2.2 mg/dL
[1]; summary statement
  body weight (summary): promoted weight loss
  insulin resistance (summary): decreased insulin resistance
  leptin levels (summary): decreased leptin levels
[2]
  progression of fibrosis after onset of steatohepatitis: prevented progression of fibrosis
[3]; [4]
  Fatty Change Degree of fat: 4 (2×) and 3 and 1
  Fatty Change Type (predominant type): Microvesicular; also recorded: Mixed; also recorded: Macrovesicular
  Inflammatory Clusters: 1 and 2 (4×)
[3]; [5]
  Fatty Change Degree of fat: 3 (2×) and 2 and 1
  Fatty Change Type (predominant type): Microvesicular
  Inflammatory Clusters: 2 (3×) and 1
[3]; summary statement
  steatohepatitis (summary): improved steatohepatitis
